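In this assay, cells in 96-well plates receive the compound at five concentrations for 48 hours. Endpoints are linearly interpolated between the surrounding concentrations. The concentration for 50% growth inhibition is given as GI50.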 Activity calls are given as the source filed them. Rule as the data show it: active = GI50 up to about 1.1 µM and inactive = higher.
Experiments:
Test in all cases: inhibition of tumour cell growth, NCI panel, 48 h
MDA-N = test system: MDA-N
HL-60 = test system: HL-60
MCF7 = test system: MCF7
NCI-H23 = test system: NCI-H23
CCRF-CEM = test system: CCRF-CEM
NCI-H522 = test system: NCI-H522
Malme-3M = test system: Malme-3M
RPMI-8226 = test system: RPMI-8226
EKVX = test system: EKVX
MDA-MB-231 = test system: MDA-MB-231
HOP-92 = test system: HOP-92
COLO 205 = test system: COLO 205
U-251 = test system: U-251
TK-10 = test system: TK-10
MOLT-4 = test system: MOLT-4
OVCAR-3 = test system: OVCAR-3
786-0 = test system: 786-0
UO-31 = test system: UO-31
SF-539 = test system: SF-539
A498 = test system: A498
IGROV-1 = test system: IGROV-1
OVCAR-5 = test system: OVCAR-5
K562 = test system: K562
DU-145 = test system: DU-145
NCI-H226 = test system: NCI-H226
LOX IMVI = test system: LOX IMVI
SK-MEL-28 = test system: SK-MEL-28
HT-29 = test system: HT-29
SK-MEL-2 = test system: SK-MEL-2
OVCAR-8 = test system: OVCAR-8
SN12C = test system: SN12C
UACC-257 = test system: UACC-257
A549 = test system: A549
Hs-578T = test system: Hs-578T
SK-OV-3 = test system: SK-OV-3
M14 = test system: M14
SK-MEL-5 = test system: SK-MEL-5
NCI-H460 = test system: NCI-H460
NCI/ADR-RES = test system: NCI/ADR-RES
HCT-116 = test system: HCT-116
HOP-62 = test system: HOP-62
SNB-75 = test system: SNB-75
SW-620 = test system: SW-620
KM12 = test system: KM12
HCT-15 = test system: HCT-15
CAKI-1 = test system: CAKI-1
PC-3 = test system: PC-3
OVCAR-4 = test system: OVCAR-4
ACHN = test system: ACHN
T47D = test system: T47D
SR = test system: SR
MDA-MB-435 = test system: MDA-MB-435
SNB-19 = test system: SNB-19
RXF 393 = test system: RXF 393
HCC 2998 = test system: HCC 2998
SF-268 = test system: SF-268
UACC-62 = test system: UACC-62
SF-295 = test system: SF-295

Measured: GI50

CCN(CC)CC/N=c1\c2cc(OC)ccc2[nH]c2c([N+](=O)[O-])ccc(NCCN(CC)CC)c12
inactive: MDA-N 1.12 µM | NCI-H23 1.86 µM | NCI-H522 1.14 µM | Malme-3M 1.82 µM | EKVX 1.93 µM | HOP-92 1.83 µM | U-251 1.24 µM | TK-10 2.11 µM | OVCAR-3 1.92 µM | UO-31 1.17 µM | A498 2.3 µM | IGROV-1 2.34 µM | OVCAR-5 1.57 µM | DU-145 2.37 µM | SK-MEL-28 4.11 µM | SK-MEL-2 2.06 µM | UACC-257 4.17 µM | Hs-578T 1.46 µM | SK-OV-3 3.12 µM | M14 2.88 µM | SK-MEL-5 1.57 µM | HOP-62 1.18 µM | SNB-75 1.9 µM | CAKI-1 2.33 µM | OVCAR-4 1.15 µM | ACHN 2.78 µM | T47D > 7.38 µM | MDA-MB-435 1.88 µM | RXF 393 1.26 µM | SF-268 2.27 µM | UACC-62 5.26 µM | SF-295 1.26 µM
active: HL-60 0.989 µM | MCF7 0.698 µM | CCRF-CEM 0.258 µM | RPMI-8226 0.451 µM | MDA-MB-231 0.966 µM | COLO 205 0.875 µM | MOLT-4 0.198 µM | 786-0 0.399 µM | SF-539 1.06 µM | K562 0.306 µM | NCI-H226 0.955 µM | LOX IMVI 0.794 µM | HT-29 0.7 µM | OVCAR-8 0.482 µM | SN12C 0.925 µM | A549 1.05 µM | NCI-H460 0.386 µM | NCI/ADR-RES 1.01 µM | HCT-116 0.853 µM | SW-620 0.6 µM | KM12 0.875 µM | PC-3 0.706 µM | SR 0.16 µM | SNB-19 0.794 µM | HCC 2998 0.718 µM
1.02 µM: HCT-15

C/C=C(/C)C(=O)O[C@H]1C[C@@H]2[C@@H](O)c3occ(C)c3C[C@]2(C)[C@@H](C)C1
inactive: MDA-N 18.7 µM | HL-60 9.93 µM | MCF7 20.9 µM | NCI-H23 17.8 µM | CCRF-CEM 18.4 µM | NCI-H522 14.6 µM | Malme-3M 15.8 µM | RPMI-8226 25.6 µM | EKVX 15.8 µM | MDA-MB-231 15.5 µM | HOP-92 17.4 µM | COLO 205 16.2 µM | U-251 14.8 µM | TK-10 17.6 µM | MOLT-4 15.2 µM | OVCAR-3 17.1 µM | 786-0 16.1 µM | SF-539 17.5 µM | IGROV-1 16.7 µM | OVCAR-5 19.6 µM | K562 10.4 µM | DU-145 14.8 µM | NCI-H226 14.2 µM | LOX IMVI 17.5 µM | SK-MEL-28 16.3 µM | HT-29 15.6 µM | OVCAR-8 19.2 µM | SN12C 14.1 µM | UACC-257 11.1 µM | Hs-578T 28.8 µM | SK-OV-3 17.1 µM | M14 15.6 µM | SK-MEL-5 10.4 µM | NCI-H460 22.4 µM | NCI/ADR-RES 14.2 µM | HCT-116 15.2 µM | HOP-62 17.4 µM | SW-620 16.2 µM | KM12 16.3 µM | CAKI-1 18.3 µM | PC-3 14.4 µM | OVCAR-4 18 µM | ACHN 17.1 µM | T47D 11.6 µM | SR 14.2 µM | MDA-MB-435 16.5 µM | SNB-19 16.8 µM | RXF 393 14.4 µM | HCC 2998 16.6 µM | SF-268 16 µM | UACC-62 13.4 µM | SF-295 15.2 µM
18.7 µM: HCT-15

CCOC(=O)C(=O)/C(=C/n1c(=S)[nH]c2ccc([N+](=O)[O-])cc21)C(=O)OCC
inactive: MDA-N > 100 µM | HL-60 > 100 µM | MCF7 > 100 µM | NCI-H23 > 100 µM | CCRF-CEM > 100 µM | RPMI-8226 > 100 µM | MDA-MB-231 > 100 µM | HOP-92 > 100 µM | COLO 205 > 100 µM | U-251 > 100 µM | TK-10 > 100 µM | MOLT-4 > 100 µM | OVCAR-3 > 100 µM | 786-0 > 100 µM | UO-31 > 100 µM | SF-539 > 100 µM | A498 > 100 µM | OVCAR-5 > 100 µM | K562 > 100 µM | DU-145 > 100 µM | NCI-H226 60 µM | LOX IMVI > 100 µM | SK-MEL-28 > 100 µM | HT-29 > 100 µM | SK-MEL-2 > 100 µM | OVCAR-8 > 100 µM | SN12C > 100 µM | UACC-257 > 100 µM | A549 > 100 µM | Hs-578T > 100 µM | SK-OV-3 > 100 µM | M14 > 100 µM | SK-MEL-5 65.5 µM | NCI-H460 > 100 µM | NCI/ADR-RES > 100 µM | HCT-116 > 100 µM | HOP-62 > 100 µM | SNB-75 90.4 µM | SW-620 > 100 µM | KM12 > 100 µM | CAKI-1 > 100 µM | PC-3 > 100 µM | OVCAR-4 > 100 µM | ACHN > 100 µM | T47D > 100 µM | SR > 100 µM | MDA-MB-435 > 100 µM | SNB-19 > 100 µM | RXF 393 > 100 µM | HCC 2998 > 100 µM | SF-268 > 100 µM | UACC-62 > 100 µM | SF-295 > 100 µM
